Data: patent publication US9040523B2, “Antifungal 5,6-dihydro-4H-pyrrolo[1,2-α][1,4]-benzodiazepines and 6H-pyrrolo[1,2-α][1,4]benzodiazepines substituted with benzene derivatives” (JANSSEN PHARMACEUTICA NV, priority 2010, dated 2015)

Key:
[1] = system: Sporothrix schenkii B62482; experiment: Antifungal activity in vitro (resazurin susceptibility screen), Inf. A; assay type: cell-based; details: 27 °C, 4 days, resa time 24 hours, highest in-test concentration 64 μM
Procedure, shortened: (§1)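 Serially diluted compounds were pre-spotted into 96-well U-bottom plates, then each well received 10^3 cfu of cryopreserved fungal inoculum in 200 μl RPMI-MOPS medium. Every plate carried a compound-free growth control (100%) and a medium-only control (0%), with resazurin as read-out.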

[2] = system: Trichophyton rubrum B68183; experiment: Antifungal activity in vitro (resazurin susceptibility screen), Inf. C; assay type: cell-based; details: Trichophyton rubrum B68183, 27 °C, 7 days, resa time 24 hours
Procedure, shortened: as §1

[3] = system: Aspergillus fumigatus B42928; experiment: Antifungal activity in vitro (resazurin susceptibility screen), Inf. E; assay type: cell-based; details: Aspergillus fumigatus B42928, 27 °C, 48 hours, resa time 17 hours
Procedure, shortened: as §1

[4] = system: Cryptococcus neoformans B66663; experiment: Antifungal activity in vitro (resazurin susceptibility screen), Inf. F; assay type: cell-based; details: 37 °C, 24 hours, resa time 4 hours
Procedure, shortened: as §1

[5] = system: Trichophyton mentagrophytes B70554; experiment: Antifungal activity in vitro (resazurin susceptibility screen), Inf. G; assay type: cell-based; details: 27 °C, 7 days, resa time 24 hours
Procedure, shortened: (§2)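 Each well was inoculated with 10^3 cfu of fungus onto dried, pre-spotted compound serial dilutions in RPMI-MOPS medium, with fungal growth read by resazurin. Growth was referenced to drug-free culture (100%) and medium-only (0%) controls on each plate.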

[6] = Liver metabolic stability assay, hLM; assay type: in vitro ADME, human; details: human liver microsomes, 1 mg protein/ml, 5 μM test compound, 15 min, 37 °C
Procedure: (§3) Liver preparations (microsomal fractions) were obtained from BD Gentest (San Jose, Calif., US). Metabolic stability was assessed using the following assay conditions. […] The mixture was pre-incubated at 37° C. for 5 min and the enzymatic reaction was started by addition of 5 μM test compound. After 0 (control) and 15 minutes (min), the reactions were terminated by addition of […] (500 μl). The precipitated material was removed by centrifugation at 1200 g for 10 min. The supernatant was analysed by LC-MS/MS on a ThermoFinnigan LCQ Deca XP ion-trap mass spectrometer equipped with an atmospheric pressure chemical ionisation source. Calculation of %-compound remaining was as described by Kantharaj et al. 2003 ((Kantharaj E., Tuytelaars A, Proost P E A, Ongel Z, van […] (2003). Simultaneous measurement of drug metabolic stability and identification of metabolites using ion-trap mass spectrometry.

[7] = Liver metabolic stability assay, mLM; assay type: in vitro ADME; details: mouse liver microsomes, 1 mg protein/ml, 5 μM test compound, 15 min, 37 °C
Procedure: as §3

[8] = Liver metabolic stability assay, gpLM; assay type: in vitro ADME, guinea pig; details: guinea pig microsomes, 1 mg protein/ml, 5 μM test compound, 15 min, 37 °C
Procedure: as §3

Microsporum canis B68128 = experiment: Antifungal activity in vitro (resazurin susceptibility screen), Inf. B; assay type: cell-based; details: Microsporum canis B68128; 27 °C, 9 days, resa time 24 hours
Procedure, shortened: as §2

[9] = system: Candida parapsilosis B66126; experiment: Antifungal activity in vitro (resazurin susceptibility screen), Inf. D; assay type: cell-based; details: Candida parapsilosis B66126; 37 °C, 24 hours, resa time 4 hours
Procedure, shortened: as §2

CYP3A4 = CYP3A4 (Homo sapiens, UniProt P08684); experiment: Cytochrome P450 inhibition, Protocol A, cDNA expressed proteins, fluorogenic substrates; assay type: in vitro ADME; details: % inhibition at 10 μM, cDNA expressed protein
CYP3A4, sequence (P08684 whole entry): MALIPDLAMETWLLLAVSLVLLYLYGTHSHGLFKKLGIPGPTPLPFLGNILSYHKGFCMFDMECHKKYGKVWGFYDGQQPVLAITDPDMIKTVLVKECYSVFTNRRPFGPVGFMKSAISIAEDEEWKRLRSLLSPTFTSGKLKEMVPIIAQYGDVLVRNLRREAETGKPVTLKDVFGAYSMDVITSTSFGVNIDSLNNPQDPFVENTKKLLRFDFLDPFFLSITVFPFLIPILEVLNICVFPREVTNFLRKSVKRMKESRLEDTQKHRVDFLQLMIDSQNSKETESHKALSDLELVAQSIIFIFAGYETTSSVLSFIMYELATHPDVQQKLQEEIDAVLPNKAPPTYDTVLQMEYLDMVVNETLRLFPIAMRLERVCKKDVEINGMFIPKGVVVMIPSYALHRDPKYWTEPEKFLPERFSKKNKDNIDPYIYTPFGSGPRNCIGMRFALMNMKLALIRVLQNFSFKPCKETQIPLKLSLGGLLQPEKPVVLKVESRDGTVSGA
Procedure: (§4) All fluorogenic based assays were performed in Black Costar 96-well plates according to Crespi et al 1997 with minor modifications (Crespi C L, Miller V P & Penman B W (1997). Microtiter plate assays for inhibition of human, drug-metabolizing cytochromes P450. Anal. Biochem. Vol 248, 1898-1900). Assay conditions are outlined in Table 5a. For cytochrome P450 3A4, three different fluorogenic substrates were used. Each reaction mixture consisted of the appropriate concentration of enzyme, NADPH-generating system (“NADPH” means β-nicotinamide adenine dinucleotide phosphate, reduced), substrate in sodium/potassium buffer (pH 7.4). For each cytochrome P450 batch Michealis-Menten kinetics were determined using 11 concentrations.
(§5) Thereafter, further dilutions were made in acetonitrile. […] The compounds were serially diluted to give final concentrations ranging from 1 nM to 10 μM. The reaction mixtures, whereby 1 μL of buffer was replaced by compound solution, were pre-warmed for 5 min at 37° C. and the reaction was initiated by the addition of β-nicotinamide adenine dinucleotide phosphate (NADP+). Reactions were terminated by addition of stopping reagent and the fluorescence was measured using a Fluoroscan (Labsystems, Brussel, Belgium).
(§6) In Table 5a, the following abbreviations were used: 3-cyano-7-ethocycoumarin (CEC), 7-methoxy-4-trifluoromethylcoumarin (MFC), 3-[2-(N,N-diethyl-N-methylamino)ethyl]-7-methoxy-4-methylcoumarin (AMMC), 7-benzyloxy-trifluoromethyl coumarin (BFC), 7-benzyloxyquinoline (BQ) and dibenzyl fluorescein (DBF).

CYP1A2 = biological target: T1, CYP1A2 (Homo sapiens, UniProt P05177); experiment: Cytochrome P450 inhibition, Protocol A, cDNA expressed proteins, fluorogenic substrate; assay type: in vitro ADME; details: % inhibition at 10 μM; substrate CEC; cDNA expressed protein
T1 sequence (P05177 1-516): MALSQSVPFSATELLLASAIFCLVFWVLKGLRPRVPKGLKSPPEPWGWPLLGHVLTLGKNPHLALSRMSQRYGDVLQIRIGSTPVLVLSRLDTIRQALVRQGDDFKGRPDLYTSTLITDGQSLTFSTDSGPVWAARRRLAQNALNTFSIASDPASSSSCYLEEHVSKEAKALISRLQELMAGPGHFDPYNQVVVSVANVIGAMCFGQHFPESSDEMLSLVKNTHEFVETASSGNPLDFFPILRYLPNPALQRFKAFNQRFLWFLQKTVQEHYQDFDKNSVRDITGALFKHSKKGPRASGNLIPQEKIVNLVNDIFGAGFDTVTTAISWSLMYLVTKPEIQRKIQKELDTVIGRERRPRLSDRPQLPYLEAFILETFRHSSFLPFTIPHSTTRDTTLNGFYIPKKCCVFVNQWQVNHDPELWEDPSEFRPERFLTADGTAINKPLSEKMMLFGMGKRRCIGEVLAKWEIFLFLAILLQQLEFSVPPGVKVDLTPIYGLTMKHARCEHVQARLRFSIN
Procedure: as §4, §5, §6

CYP2C9 = CYP2C9 (Homo sapiens, UniProt P11712); experiment: as above; assay type: in vitro ADME; details: % inhibition at 10 μM; substrate MFC; cDNA expressed protein
CYP2C9, sequence (P11712 whole entry): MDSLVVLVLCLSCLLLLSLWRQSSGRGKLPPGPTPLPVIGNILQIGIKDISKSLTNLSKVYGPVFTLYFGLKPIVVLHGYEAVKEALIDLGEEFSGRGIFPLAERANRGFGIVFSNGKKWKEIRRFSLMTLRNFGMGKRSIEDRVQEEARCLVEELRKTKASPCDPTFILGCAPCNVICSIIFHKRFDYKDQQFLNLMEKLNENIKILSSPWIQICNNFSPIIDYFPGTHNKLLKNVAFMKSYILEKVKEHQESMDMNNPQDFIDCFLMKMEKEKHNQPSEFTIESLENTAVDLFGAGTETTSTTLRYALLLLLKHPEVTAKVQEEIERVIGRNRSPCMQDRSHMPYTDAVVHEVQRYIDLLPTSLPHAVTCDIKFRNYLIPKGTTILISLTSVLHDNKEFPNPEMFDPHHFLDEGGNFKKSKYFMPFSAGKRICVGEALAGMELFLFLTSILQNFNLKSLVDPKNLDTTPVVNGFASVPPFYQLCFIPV
Procedure: as §4, §5, §6

CYP2D6 = CYP2D6 (Homo sapiens, UniProt P10635); experiment: as above; assay type: in vitro ADME; details: % inhibition at 10 μM; substrate AMMC; cDNA expressed protein
CYP2D6, sequence (P10635 whole entry): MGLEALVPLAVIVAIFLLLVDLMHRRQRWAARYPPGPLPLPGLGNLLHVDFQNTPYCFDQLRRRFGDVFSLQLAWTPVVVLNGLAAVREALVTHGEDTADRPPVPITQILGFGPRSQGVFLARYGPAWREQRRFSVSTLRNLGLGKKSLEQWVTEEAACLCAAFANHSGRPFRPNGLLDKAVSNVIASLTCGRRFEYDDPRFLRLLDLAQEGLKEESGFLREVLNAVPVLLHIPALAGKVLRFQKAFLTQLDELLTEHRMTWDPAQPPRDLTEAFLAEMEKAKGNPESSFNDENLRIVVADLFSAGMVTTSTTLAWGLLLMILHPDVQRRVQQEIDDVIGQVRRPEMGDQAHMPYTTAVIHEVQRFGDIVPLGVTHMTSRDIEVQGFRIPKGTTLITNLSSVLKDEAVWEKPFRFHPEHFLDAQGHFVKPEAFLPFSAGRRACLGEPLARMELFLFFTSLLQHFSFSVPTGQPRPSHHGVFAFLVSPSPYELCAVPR
Procedure: as §4, §5, §6

Cytochrome P450 1A2 = biological target: T2, Cytochrome P450 1A2 (Homo sapiens, UniProt P05177); experiment: Human liver microsomal cytochrome P450 cocktail inhibition assay, Protocol C
T2 sequence (P05177 1-516): T1 sequence (P05177 1-516)
Procedure: (§7) Probe substrates and final assay concentrations with the appropriate internal standard are outlined in Table 6a.
(§8) Assays were performed in 0.1 M phosphate buffer (pH 7.4), containing 0.2 mg/ml human liver microsomes (BD Gentest) and a probe substrate mix consisting of: phenacetin, tolbutamide, S-mephenyloin, dextromethorphan, amodiaquine and midazolam (Table 6a) and a range of test compound concentrations (0 to 30 micromolar) in a total volume of 100 microliters. After a 10 min pre-incubation at 37° C., the reaction was started with addition of NADPH at a final concentration of 1.0 mM. […] The samples are centrifuged for 10 min at 4° C. at 4000 rpm and 60 microliters supernatant is diluted with 180 microliters water. Each sample is injected onto a UPLC/MS system for the simultaneous measurement of the probe substrate metabolites and their associated deuterated internal standards. Percentage inhibition is calculated according to: %-inhibition=(1−Ri/R)*100, whereby Ri and R are the metabolite to internal standard peak area ratios in the presence and absence of inhibitor respectively.
(§9) Percentage inhibition data are plotted against the Log transformed test compound concentration and after curve fitting the IC50-value is determined.

Cytochrome P450 2C19 = Cytochrome P450 2C19 (Homo sapiens, UniProt P33261); experiment: as above; details: 2C19_S-Meph pIC50, human liver microsomes 0.2 mg/ml; probe S-mephenytoin 30 microM
Cytochrome P450 2C19, sequence (P33261 whole entry): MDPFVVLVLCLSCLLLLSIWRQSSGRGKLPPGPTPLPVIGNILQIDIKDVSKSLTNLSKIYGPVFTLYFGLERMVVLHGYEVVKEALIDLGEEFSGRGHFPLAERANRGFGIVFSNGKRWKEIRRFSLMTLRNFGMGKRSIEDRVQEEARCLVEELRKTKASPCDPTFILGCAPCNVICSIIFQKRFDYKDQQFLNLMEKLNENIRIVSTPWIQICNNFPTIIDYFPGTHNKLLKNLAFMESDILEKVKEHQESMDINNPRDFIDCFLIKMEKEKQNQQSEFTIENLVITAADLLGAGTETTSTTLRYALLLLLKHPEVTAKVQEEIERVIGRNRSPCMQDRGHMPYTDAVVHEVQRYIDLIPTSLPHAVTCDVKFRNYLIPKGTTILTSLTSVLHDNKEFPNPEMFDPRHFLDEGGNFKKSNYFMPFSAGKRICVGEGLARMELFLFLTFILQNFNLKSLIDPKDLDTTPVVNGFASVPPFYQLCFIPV
Procedure: as §7, §8, §9

Cytochrome P450 2C9 = Cytochrome P450 2C9 (Homo sapiens, UniProt P11712); experiment: as above; details: 2C9 Tolbut pIC50, human liver microsomes 0.2 mg/ml; probe tolbutamide 100 microM
Cytochrome P450 2C9, sequence (P11712 whole entry): as the sequence (P11712 whole entry) above
Procedure: as §7, §8, §9

Cytochrome P450 2D6 = Cytochrome P450 2D6 (Homo sapiens, UniProt P10635); experiment: as above; details: 2D6_Dextro pIC50, human liver microsomes 0.2 mg/ml; probe dextromethorphan 3 microM
Cytochrome P450 2D6, sequence (P10635 whole entry): as the sequence (P10635 whole entry) above
Procedure: as §7, §8, §9

Cytochrome P450 2C8 = biological target: T3, Cytochrome P450 2C8 (Homo sapiens, UniProt P10632); experiment: as above; assay type: in vitro ADME; details: human liver microsomes 0.2 mg/ml; probe amodiaquine 2 microM; read-out: 2C8_Amod pIC50 (converted)
T3 construct: tissue BD Gentest; host or cells: human liver microsomes
T3 sequence (P10632 1-490): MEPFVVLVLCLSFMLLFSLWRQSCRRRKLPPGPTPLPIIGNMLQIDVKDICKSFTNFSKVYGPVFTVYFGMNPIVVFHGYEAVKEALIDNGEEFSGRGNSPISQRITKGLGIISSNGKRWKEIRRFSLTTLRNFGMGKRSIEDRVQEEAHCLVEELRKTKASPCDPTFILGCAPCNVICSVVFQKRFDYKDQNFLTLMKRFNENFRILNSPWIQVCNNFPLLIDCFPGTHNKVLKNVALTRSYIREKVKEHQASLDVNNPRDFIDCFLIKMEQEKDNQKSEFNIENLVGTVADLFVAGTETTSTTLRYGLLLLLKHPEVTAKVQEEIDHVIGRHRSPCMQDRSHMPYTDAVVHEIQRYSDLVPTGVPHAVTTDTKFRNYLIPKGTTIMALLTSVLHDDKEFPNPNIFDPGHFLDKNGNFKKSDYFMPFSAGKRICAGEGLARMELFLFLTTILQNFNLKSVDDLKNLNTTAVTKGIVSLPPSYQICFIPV
Procedure: as §7, §8, §9

Row | SMILES | IC50 (Cytochrome P450 1A2) | IC50 (Cytochrome P450 2C19) | IC50 (Cytochrome P450 2C9) | IC50 (Cytochrome P450 2D6) | IC50 (Cytochrome P450 2C8) | other results
1 | CC(=O)c1ccc(C2NCc3c(Cl)cccc3-n3cccc32)cc1.Cl (stereo not drawn) [Compound 5, 1-[4-(7-chloro-5,6-dihydro-4H-pyrrolo[1,2-a][1,4]benzodiazepin-4-yl)phenyl]-ethanone .HCl] | – | – | – | – | – | IC50 ([1]; Sporothrix, B62482, Sporothrix schenkii B62482, read-out: Inf. A pIC50 (converted)): 39.8 µM; IC50 ([2]; read-out: Inf. C pIC50 (converted)): 0.501 µM; IC50 ([3]; read-out: Inf. E pIC50 (converted)): 2 µM; IC50 ([4]; Cryptococcus neoformans, B66663, Cryptococcus neoformans B66663, read-out: Inf. F pIC50 (converted)): 25.1 µM; IC50 ([5]; Trichophyton mentagrophytes, B70554, Trichophyton mentagrophytes B70554, read-out: Inf. G pIC50 (converted)): 0.631 µM; %-compound metabolised_Met_hLM [6]: 59%; %-compound metabolised Met_mLM [7]: 72%; %-compound metabolised Met_gpLM [8]: 88%
2 | CC(=O)c1ccc(C2=NCc3c(ccc(Cl)c3Cl)-n3cccc32)cc1.Cl [Compound 21, 1-[4-(7,8-dichloro-6H-pyrrolo[1,2-a][1,4]benzodiazepin-4-yl)phenyl]-ethanone .HCl] | – | – | – | – | – | Inf. A pIC50 ([1]; Sporothrix schenkii B62482): <4.2; Inf. B pIC50 (Microsporum canis B68128): <4.2; Inf. C pIC50 [2]: <4.2; Inf. D pIC50 [9]: <4.2; Inf. E pIC50 [3]: <4.2; Inf. F pIC50 ([4]; Cryptococcus neoformans B66663): <4.2; Inf. G pIC50 ([5]; Trichophyton mentagrophytes B70554): <4.2; %-compound metabolised_Met_hLM [6]: 17%; %-compound metabolised Met_mLM [7]: 24%; %-compound metabolised Met_gpLM [8]: 64%; hCYP3A4_BFC_Pct_Inh (CYP3A4; substrate BFC): 0%; hCYP3A4_BQ_Pct_Inh (CYP3A4; substrate BQ): 26%; hCYP3A4_DBF_Pct_Inh (CYP3A4; substrate DBF): 26%; hCYP1A2_CEC_Pct_Inh (CYP1A2): 27%; hCYP2C9_MFC_Pct_Inh (CYP2C9): 54%; hCYP2D6_AMMC_Pct_Inh (CYP2D6): 39%
3 | CC(=O)c1ccc(C2=NCc3c(Cl)cccc3-n3cccc32)cc1 [drawing 91] | > 10 µM | > 10 µM | > 10 µM | > 10 µM | > 10 µM | –
4 | CCc1ccc(C2=NCc3c(Cl)cccc3-n3cccc32)cc1 [drawing 92] | > 10 µM | 1.58 µM | > 10 µM | > 10 µM | > 10 µM | –
5 | CS(=O)(=O)c1ccc(C2=NCc3c(Cl)cccc3-n3cccc32)cc1 [drawing 93] | > 10 µM | > 10 µM | > 10 µM | 7.59 µM | > 10 µM | –
6 | CC(O)c1ccc(C2NCc3c(Cl)cccc3-n3cccc32)cc1 (stereo not drawn) [drawing 97] | > 10 µM | 5.13 µM | > 10 µM | > 10 µM | > 10 µM | –
7 | CC(=O)c1cccc(C2NCc3c(Cl)cccc3-n3cccc32)c1 (stereo not drawn) [drawing 99] | > 10 µM | 0.158 µM | 1.58 µM | 3.16 µM | 7.94 µM | –
8 | CC(=O)c1ccc(C2NCc3ccc(Cl)cc3-n3cccc32)cc1 (stereo not drawn) [drawing 101] | > 10 µM | 3.16 µM | 6.31 µM | 7.94 µM | 7.94 µM | –
